Calls of active or inactive are those of the source. The rule behind the calls is not given here.
Target: Ribonuclease H1 (Homo sapiens) (UniProt O60930)
Test: human RNase H1 inhibitors, dose response, biochemical, FRET RNA/DNA duplex cleavage (AID 366);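 note: potency is for inhibitors that lower RNA cleavage and so lower fluorescence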
Conditions: fluorescence

Sequence of Ribonuclease H1 (Homo sapiens) (O60930 whole entry, looked up): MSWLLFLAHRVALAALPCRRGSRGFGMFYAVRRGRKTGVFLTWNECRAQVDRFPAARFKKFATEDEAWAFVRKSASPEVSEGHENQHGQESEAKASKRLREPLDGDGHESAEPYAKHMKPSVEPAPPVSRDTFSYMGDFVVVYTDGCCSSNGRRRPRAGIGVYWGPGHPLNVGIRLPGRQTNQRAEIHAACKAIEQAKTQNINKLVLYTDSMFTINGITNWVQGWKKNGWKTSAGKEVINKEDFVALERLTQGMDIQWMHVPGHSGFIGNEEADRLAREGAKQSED

Compound	IC50
C[C@]12CC[C@H]3[C@@H](CCC4=CC(=O)CC[C@@]43C)[C@@H]1CC[C@@H]2C(=O)COS(=O)(=O)c1ccc(Br)cc1	1100 nM
Cc1ccc(S(=O)(=O)/N=C2\C=CC(=O)C=C2Cl)cc1	3400 nM
COc1ccc(/C=C\C(=O)c2c(-c3ccccc3)c3cc(C)ccc3[nH]c2=O)c(OC)c1	8400 nM
COc1ccc(C(=O)NC(=S)Nc2ccc3nn(-c4ccc(C)c(Cl)c4)nc3c2)cc1[N+](=O)[O-]	560 nM
Cc1cc(C)c2c(=O)[nH]c(SCC(=O)c3ccc(O)c(O)c3)nc2n1	9000 nM
CC(C)c1ccc(O)c(=O)cc1	inactive
Cc1cc(-c2ccco2)c(C#N)c(SCC(=O)c2ccc(O)c(O)c2)n1	1800 nM
COc1cccc2cc(C(N)=O)c(=O)oc12	inactive
O=C1c2ccccc2C(=O)c2c1cc(O)c(O)c2O	600 nM
C=C1C(=O)O[C@@H]2/C=C(\C)CC/C=C(\C(=O)O)CC/C=C(\C)CC[C@H]12	3100 nM
C[N+](C)=c1ccc2nc3c(cc(Nc4ccccc4)c4ccccc43)oc-2c1	1600 nM
COc1cc(C)cc2c(-c3c(O)cc(O)c4c3C[C@@H](C)N[C@@H]4C)cc(-c3cc(-c4c(O)cc(O)c5c4C[C@@H](C)N[C@@H]5C)c4cc(C)cc(OC)c4c3O)c(O)c12	2000 nM
Cc1onc(-c2ccccc2)c1C(=O)Nc1sc(C)c(C)c1C(N)=O	8000 nM
O=C(Nc1ccc(N2CCN(C(=O)c3ccccc3)CC2)cc1)c1ccc(-c2ccccc2)cc1	350 nM
Nc1ccc(N=Nc2ccc(-c3ccc(O)cc3)cc2)c2ccc(S(=O)(=O)O)cc12	4800 nM
O=C1C=C(NCCc2cc(Br)c(O)c(Br)c2)C(=O)c2ncccc21	6800 nM
Cc1cc(C(=O)O)ccc1-n1c(C)ccc1C	inactive
Cc1c(Cl)ccc2c1NC(C(=O)O)C1CC=CC21 (centres undefined)	2000 nM
Cc1ccc(C)n1-c1ccc(Br)cc1C(=O)O	9000 nM
O=C(O)CCc1c2ccc(=O)c(O)c-2oc2c(O)c(O)ccc12	70 nM
CN1CC(O)C2=CC(=O)C(=O)C=C21 (centres undefined)	1600 nM
Cc1c(O)c(Br)c(C)c(O)c1Br (tested in a mixture with another compound)	inactive
O=C1NC(=S)S/C1=C/c1cccc(OCc2ccc(Cl)c(Cl)c2)c1	7300 nM
O=C1c2ccccc2C(=O)c2c(O)c(O)cc(O)c21	4200 nM
Cc1ccc(S(=O)(=O)N=C2C=CC(=O)C=C2)c(C)c1	3100 nM
O=C1C=CC(=O)c2c(O)cccc21	500 nM

Compound	IC50
Cc1ccc(C)n1-c1ccc(SCC(=O)O)cc1	1200 nM
Cc1sc(NC(=O)c2cccc([N+](=O)[O-])c2)c(C(N)=O)c1C	700 nM
N#Cc1c(NC(=O)C(F)(F)F)sc2c3c(=O)c4ccccc4c(=O)c=3oc3ccccc3c12	inactive
CCOc1ccc(NC(=O)c2c(NC(=O)c3ccco3)sc3c2CCCCC3)cc1	2100 nM
COc1ccccc1N=C(NOCc1ccc(Cl)cc1Cl)c1nonc1N	8800 nM
O=C1Nc2ccc(I)cc2C1(O)N1CCOCC1 (centres undefined)	400 nM
Cc1nn(CC(=O)Nc2sc(C)c(C)c2C(N)=O)c(C)c1[N+](=O)[O-]	6000 nM
Cc1ccc(C(=O)NC(=S)Nc2ccc(-c3nc4ccccc4s3)cc2)cc1[N+](=O)[O-]	800 nM
Cc1cccc(NCC(=O)N/N=C\c2c(Br)cc(Br)c(O)c2Br)c1	inactive
O=C(O)/C=C/c1c2ccc(=O)c(O)c-2oc2c(O)c(O)ccc12	50 nM
Oc1ccc2ccccc2c1C=NCc1c(O)ccc2ccccc12	8000 nM
Cc1sc(NC(=O)Cc2ccccc2)c(C(N)=O)c1C	inactive
Nc1ccc(S(=O)(=O)O)c2cccc(O)c12	4500 nM
CN(C)S(=O)(=O)c1ccc(Nc2ccc(O)c3c2C(=O)c2c([N+](=O)[O-])ccc(O)c2C3=O)cc1	800 nM
COC(=O)c1c(N)sc(C(=O)Nc2ccc(OC)cc2)c1C	inactive
NCC[Se][Se]CCN	5300 nM
Oc1cc(CN2COc3ccccc32)c(O)cc1CNC1CCCCC1	inactive
O=S(=O)(Nc1cccc(C(F)(F)F)c1)c1ccc2ccccc2c1	inactive
O=C(Cc1ccccc1Cl)c1ccc(O)c(O)c1O	inactive
C=C(CCC(C(=O)O)C1CCC2(C)C3=C(CCC12C)C1(C)CCC(O)C(C)(C)C1CC3)C(C)C (centres undefined)	4800 nM
O=C(O)C1CCCCC1c1c2ccc(=O)c(O)c-2oc2c(O)c(O)ccc12 (centres undefined)	100 nM
O=C1C(Cl)=CC(=NS(=O)(=O)c2ccccc2)C=C1Cl	4300 nM
O=c1[nH]c(=S)n(-c2ccccc2F)c(O)c1C=C1C=CC=N1	400 nM
Cc1cccc(NC(=O)c2c(NC(=O)c3ccc([N+](=O)[O-])cc3)sc3c2CCCC3)c1	580 nM
CCN1C(=O)/C(=C/c2ccoc2)C(=O)NC1=S	> 100000 nM (inactive)
Cc1sc(NC(=O)c2ccc3c(c2)OCO3)c(C(N)=O)c1C	3300 nM

Compound	IC50
C=CCN1C(=O)/C(=C\c2ccc([N+](=O)[O-])o2)C(=O)NC1=S	inactive
COc1ccc(C2COc3cc(O)c(O)cc3C2)cc1 (centres undefined)	2800 nM
CC(C)=CCc1ccc(O)c(=O)cc1C(C)C	inactive
CC(C)=CCC1=C(O)[C@@](O)(CC=C(C)C)C(=O)C(C(=O)CC(C)C)=C1O	2000 nM
Cc1ccc(N2C(=O)/C(=C/c3ccc(O)c(O)c3)SC2=S)cc1C	4000 nM
CN(C)CS/C(N)=N/C(O)C(Cl)(Cl)Cl (centres undefined)	inactive
FC(F)(F)c1nc2ccc(SSc3ccc4nc(C(F)(F)F)[nH]c4c3)cc2[nH]1	1700 nM
O=C(O)c1cc(-c2ccc(/C=C3/Sc4ccccc4C3=O)o2)ccc1O	400 nM
CCOc1ccc(NC(=O)c2c(NC(=O)c3ccccc3)sc3c2CCCCC3)cc1	1100 nM
O=[N+]([O-])c1cc(Cc2cc([N+](=O)[O-])c3cccnc3c2O)c(O)c2ncccc12	500 nM
O=C1C=CC(=O)C(c2cccc(Cl)c2)=C1	3900 nM
Cc1sc(NC(=O)C2CC3CCC2C3)c(C(N)=O)c1C (centres undefined)	inactive
N#C/C(=C\Nc1ccc(S(=O)(=O)Nc2nccs2)cc1)c1nc(-c2ccc(Cl)cc2)cs1	500 nM
C=C/C(C)=C/C[C@]1(C)[C@H](C)CC[C@@]23C(=C[C@H](OC(=O)c4ccc(O)c(OC)c4)C[C@@H]12)[C@@H](OC(C)=O)O[C@H]3OC(C)=O	4000 nM
CC(C)OC(=O)c1cc(O)c(O)c(O)c1	> 100000 nM (inactive)
CCOC(=O)Oc1c(OC)cc(C(=O)O[C@@H]2C[C@@H]3CN4CCc5c([nH]c6cc(OC)ccc56)[C@H]4C[C@@H]3[C@H](C(=O)OC)[C@H]2OC)cc1OC	inactive
Oc1cc(O)c2c(c1)OC(c1ccc(O)c(O)c1)C(OC1(c3cc(O)c(O)c(O)c3)Oc3cc(O)cc(O)c3C(O)C1O)C2 (centres undefined)	2400 nM
O=S(=O)(O)c1cc(N=[N+]([O-])c2cc(S(=O)(=O)O)c3ccccc3c2)cc2ccccc12	500 nM
CC(C)=CCC(O)C1=CC(=O)c2c(O)ccc(O)c2C1=O (centres undefined)	4200 nM
C=CC1=C(C)C2=NC1=CC1=NC(=CC3=C(C)C4=C(O)C(C(=O)OC)C(=C5NC(=C2)C(C)C5CCC(=O)OC/C=C(\C)CCCC(C)CCCC(C)CCCC(C)C)C4=N3)C(CC)=C1C (centres undefined)	> 100000 nM (inactive)
C=CCn1c(N)c(-c2nc3ccccc3[nH]2)sc1=S	inactive
O=C1NC(=S)N(c2ccccc2F)C(=O)C1=Cc1ccco1	200 nM
Cc1sc(NC(=O)c2ccc(Br)o2)c(C(N)=O)c1C	5000 nM
O=C1NN(c2ccc(I)cc2)C(=O)/C1=C\c1ccc(O)c(O)c1	8300 nM
O=C1C(Cl)=C/C(=N\S(=O)(=O)c2ccc(Cl)cc2)C(Cl)=C1Cl	4600 nM
O=C1C(Cl)=C(NC(=O)c2ccccc2)C(=O)C(Cl)=C1NC(=O)c1ccccc1	inactive

Compound	IC50
NC(=O)c1c(NC(=O)COc2ccccc2)sc2c1CCCCC2	3800 nM
COc1ccc(-c2nc3sc(-c4ccc(OC)cc4)nc3s2)cc1	inactive
COc1ccc(N2C(=O)/C(=C\c3cn(CC(=O)Nc4ccccc4)c4ccccc34)C(=O)NC2=S)cc1	620 nM
NC(=O)c1c(N)sc2c1CCCCC2	inactive
CC1=NN(c2ccc(S(N)(=O)=O)cc2)C(=O)/C1=C/c1ccc(-c2ccc(Cl)cc2Cl)o1	750 nM
NC(=O)c1c(NC(=O)CCc2ccccc2)sc2c1CCCCCC2	1800 nM
O=C1/C(=C\c2ccc(O)c(O)c2)SC(=S)N1c1cccc(Cl)c1	1600 nM
Cc1ccc(C(=O)Nc2sc(C)c(C)c2C(N)=O)cc1	800 nM
O=c1c(O)cccc2cc(O)c(O)c(O)c12	900 nM
COc1cc([C@@H]2c3cc4c(cc3C[C@H]3COC(=O)[C@@H]32)OCO4)cc(OC)c1O	1800 nM
N#Cc1c(N)nc(SCC(=O)c2ccc(O)c(O)c2)c(C#N)c1-c1ccc(O)cc1	1300 nM
CCC(=O)Nc1sc2c(c1C(=O)Nc1ccc(OC)cc1)CCCCC2	9000 nM
CC1C2C=CC1C(c1c3ccc(=O)c(O)c-3oc3c(O)c(O)ccc13)C2C(=O)O (centres undefined)	70 nM
O=C1C=CC2=C3c4cc(O)c(O)cc4CC3(O)COC2=C1O (centres undefined)	200 nM
Ic1ccc2c(c1)N(c1ccccc1)c1cc(N=c3ccc4nc5ccc(I)cc5n(-c5ccccc5)c-4c3)ccc1N2	300 nM
O=C1/C(=C/c2ccco2)C(=O)N(c2ccc(Br)cc2)C(=S)N1c1ccccc1	4400 nM
O=C(CSc1nc2ccccc2s1)c1sc2sc3ccccc3[n+]2c1[O-]	300 nM
Cc1sc(NC(=O)c2ccco2)c(C(N)=O)c1C	inactive
CCOc1ccc(C(=O)Nc2ccc3c(c2)C(=O)c2ccccc2C3=O)cc1	1100 nM
Cc1ccc(S(=O)(=O)N=C2C=C(Cl)C(=O)C(Br)=C2)cc1	4700 nM
O=C1NC(=S)N(c2cccc(Cl)c2)C(=O)/C1=C\C=C\c1ccco1	6000 nM
C=CC(C)(C)C12CC3C(=O)N/C(=C\c4cnc[nH]4)C(=O)N3C1Nc1ccccc12 (centres undefined)	inactive
Cc1cc(Br)ccc1N1C(=O)/C(=C/c2ccco2)C(=O)NC1=S	800 nM
CCCCCCCCCCCCCCCC(=O)OCC1OC(n2ccc(N)nc2=O)C(O)C1O (centres undefined)	600 nM
Cc1cc(O)c2c(c1O)C(=O)C13C(=C2O)C(=O)C2C(O)C1C1C(O)C3C(=O)C3=C(O)c4c(O)cc(C)c(O)c4C(=O)C321 (centres undefined)	4000 nM
CCc1c(O)c2c(c(O)c1C(C)=O)C(=O)c1c(cc(O)c(C(=O)O)c1C(=O)O)C2=O	3600 nM

— PubChem BioAssay AID366 (MTDP, 2006)
